Values of other authors, collected in patent US12409168B2, “Formulations of aminopenicillin and methods for solubilizing aminopenicillin” (VETERINARY PHARMACY CORPORATION, priority 2023, dated 2025).

Which results are given for `CC1(C)S[C@@H]2[C@H](NC(=O)[C@H](N)c3ccc(O)cc3)C(=O)N2[C@H]1C(=O)O` [Amoxicillin]?
degradation at 24 hours (0.00015 mg/ml, 24 hours): no degradation; degradation to (potency remaining) at 24 hours (0.42 mg/ml, buffered solution, pH 8.04, 24 hours): 73%
